Results as given in US8192962B2, “Processes for detecting toxic substances” (Daikin Industries, Ltd., priority 2001, dated 2012).

System: Unknown protein yeast genes
Assay: DNA chip mRNA expression in yeast, unknown protein yeast genes (Table 1)
Format: cell-based, Saccharomyces cerevisiae S288C
Procedure, shortened: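 Measured as treated-to-untreated fluorescence ratio on a full-genome yeast DNA chip. Cells (S288C, YPD, 25° C.) were exposed in log phase for two hours to one chemical, dosed to curb growth without killing.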

## CN(C)C(=S)SSC(=S)N(C)C [(10), Tetramethylthiuram disulfide]
Yeast gene YKL086W, incubated two hours with chemical substance
  The level of expressed mRNA in the presence of chemical substance/The level of expressed mRNA in the absence of chemical substance: 20.5
Yeast gene YKL151C, incubated two hours with chemical substance
  The level of expressed mRNA in the presence of chemical substance/The level of expressed mRNA in the absence of chemical substance: 3.5
Yeast gene YKL153W, incubated two hours with chemical substance
  The level of expressed mRNA in the presence of chemical substance/The level of expressed mRNA in the absence of chemical substance: 1.4
Yeast gene YKL195W, incubated two hours with chemical substance
  The level of expressed mRNA in the presence of chemical substance/The level of expressed mRNA in the absence of chemical substance: 2.1
Yeast gene YKR011C
  The level of expressed mRNA in the presence of chemical substance/The level of expressed mRNA in the absence of chemical substance: 4.4
Yeast gene YKR091W, incubated two hours with chemical substance
  The level of expressed mRNA in the presence of chemical substance/The level of expressed mRNA in the absence of chemical substance: 1.6
Yeast gene YLR054C, incubated two hours with chemical substance
  The level of expressed mRNA in the presence of chemical substance/The level of expressed mRNA in the absence of chemical substance: 1.1
Yeast gene YLR149C, incubated two hours with chemical substance
  The level of expressed mRNA in the presence of chemical substance/The level of expressed mRNA in the absence of chemical substance: 5.2
Yeast gene YLR152C, incubated two hours with chemical substance
  The level of expressed mRNA in the presence of chemical substance/The level of expressed mRNA in the absence of chemical substance: 1.1
Yeast gene YLR194C, incubated two hours with chemical substance
  The level of expressed mRNA in the presence of chemical substance/The level of expressed mRNA in the absence of chemical substance: 1.1
Yeast gene YLR324W, incubated two hours with chemical substance
  The level of expressed mRNA in the presence of chemical substance/The level of expressed mRNA in the absence of chemical substance: 1.4
Yeast gene YLR350W, incubated two hours with chemical substance
  The level of expressed mRNA in the presence of chemical substance/The level of expressed mRNA in the absence of chemical substance: 1.4
Yeast gene YLR387C, incubated two hours with chemical substance
  The level of expressed mRNA in the presence of chemical substance/The level of expressed mRNA in the absence of chemical substance: 3.0
Yeast gene YLR460C
  The level of expressed mRNA in the presence of chemical substance/The level of expressed mRNA in the absence of chemical substance: 31.6
Yeast gene YML117W, incubated two hours with chemical substance
  The level of expressed mRNA in the presence of chemical substance/The level of expressed mRNA in the absence of chemical substance: 1.4
Yeast gene YMR009W, incubated two hours with chemical substance
  The level of expressed mRNA in the presence of chemical substance/The level of expressed mRNA in the absence of chemical substance: 2.2
Yeast gene YMR067C, incubated two hours with chemical substance
  The level of expressed mRNA in the presence of chemical substance/The level of expressed mRNA in the absence of chemical substance: 3.5
Yeast gene YMR090W
  The level of expressed mRNA in the presence of chemical substance/The level of expressed mRNA in the absence of chemical substance: 6.1
Yeast gene YMR095C, incubated two hours with chemical substance
  The level of expressed mRNA in the presence of chemical substance/The level of expressed mRNA in the absence of chemical substance: 1.4
Yeast gene YMR097C, incubated two hours with chemical substance
  The level of expressed mRNA in the presence of chemical substance/The level of expressed mRNA in the absence of chemical substance: 2.1
Yeast gene YMR102C, incubated two hours with chemical substance
  The level of expressed mRNA in the presence of chemical substance/The level of expressed mRNA in the absence of chemical substance: 2.6
Yeast gene YMR107W, incubated two hours with chemical substance
  The level of expressed mRNA in the presence of chemical substance/The level of expressed mRNA in the absence of chemical substance: 17.1
Yeast gene YMR180C, incubated two hours with chemical substance
  The level of expressed mRNA in the presence of chemical substance/The level of expressed mRNA in the absence of chemical substance: 2.2
Yeast gene YMR184W, incubated two hours with chemical substance
  The level of expressed mRNA in the presence of chemical substance/The level of expressed mRNA in the absence of chemical substance: 0.9
Yeast gene YMR191W, incubated two hours with chemical substance
  The level of expressed mRNA in the presence of chemical substance/The level of expressed mRNA in the absence of chemical substance: 3.5
Yeast gene YMR295C, incubated two hours with chemical substance
  The level of expressed mRNA in the presence of chemical substance/The level of expressed mRNA in the absence of chemical substance: 0.8
Yeast gene YMR316W, incubated two hours with chemical substance
  The level of expressed mRNA in the presence of chemical substance/The level of expressed mRNA in the absence of chemical substance: 3.0
Yeast gene YNL044W, incubated two hours with chemical substance
  The level of expressed mRNA in the presence of chemical substance/The level of expressed mRNA in the absence of chemical substance: 0.8
Yeast gene YNL074C, incubated two hours with chemical substance
  The level of expressed mRNA in the presence of chemical substance/The level of expressed mRNA in the absence of chemical substance: 2.0
Yeast gene YNL092W, incubated two hours with chemical substance
  The level of expressed mRNA in the presence of chemical substance/The level of expressed mRNA in the absence of chemical substance: 1.5
Yeast gene YNL115C, incubated two hours with chemical substance
  The level of expressed mRNA in the presence of chemical substance/The level of expressed mRNA in the absence of chemical substance: 1.9
Yeast gene YNL156C, incubated two hours with chemical substance
  The level of expressed mRNA in the presence of chemical substance/The level of expressed mRNA in the absence of chemical substance: 1.9
Yeast gene YNL234W, incubated two hours with chemical substance
  The level of expressed mRNA in the presence of chemical substance/The level of expressed mRNA in the absence of chemical substance: 3.3
Yeast gene YNL281W, incubated two hours with chemical substance
  The level of expressed mRNA in the presence of chemical substance/The level of expressed mRNA in the absence of chemical substance: 1.6
Yeast gene YNL305C, incubated two hours with chemical substance
  The level of expressed mRNA in the presence of chemical substance/The level of expressed mRNA in the absence of chemical substance: 2.1
Yeast gene YNR068C, incubated two hours with chemical substance
  The level of expressed mRNA in the presence of chemical substance/The level of expressed mRNA in the absence of chemical substance: 14.4
Yeast gene YOL032W, incubated two hours with chemical substance
  The level of expressed mRNA in the presence of chemical substance/The level of expressed mRNA in the absence of chemical substance: 3.0
Yeast gene YOL036W, incubated two hours with chemical substance
  The level of expressed mRNA in the presence of chemical substance/The level of expressed mRNA in the absence of chemical substance: 2.8
Yeast gene YOL047C, incubated two hours with chemical substance
  The level of expressed mRNA in the presence of chemical substance/The level of expressed mRNA in the absence of chemical substance: 2.3
Yeast gene YOL071W, incubated two hours with chemical substance
  The level of expressed mRNA in the presence of chemical substance/The level of expressed mRNA in the absence of chemical substance: 2.3
Yeast gene YOL082W, incubated two hours with chemical substance
  The level of expressed mRNA in the presence of chemical substance/The level of expressed mRNA in the absence of chemical substance: 2.0
Yeast gene YOL083W, incubated two hours with chemical substance
  The level of expressed mRNA in the presence of chemical substance/The level of expressed mRNA in the absence of chemical substance: 2.3
Yeast gene YOL117W, incubated two hours with chemical substance
  The level of expressed mRNA in the presence of chemical substance/The level of expressed mRNA in the absence of chemical substance: 4.1
Yeast gene YOL131W, incubated two hours with chemical substance
  The level of expressed mRNA in the presence of chemical substance/The level of expressed mRNA in the absence of chemical substance: 8.1
Yeast gene YOL150C
  The level of expressed mRNA in the presence of chemical substance/The level of expressed mRNA in the absence of chemical substance: 8.3
Yeast gene YOL162W, incubated two hours with chemical substance
  The level of expressed mRNA in the presence of chemical substance/The level of expressed mRNA in the absence of chemical substance: 6.8
Yeast gene YOR019W, incubated two hours with chemical substance
  The level of expressed mRNA in the presence of chemical substance/The level of expressed mRNA in the absence of chemical substance: 7.1
Yeast gene YOR197W, incubated two hours with chemical substance
  The level of expressed mRNA in the presence of chemical substance/The level of expressed mRNA in the absence of chemical substance: 0.7
Yeast gene YOR338W
  The level of expressed mRNA in the presence of chemical substance/The level of expressed mRNA in the absence of chemical substance: 3.5
Yeast gene YPL087W, incubated two hours with chemical substance
  The level of expressed mRNA in the presence of chemical substance/The level of expressed mRNA in the absence of chemical substance: 2.2
Yeast gene YPL196W, incubated two hours with chemical substance
  The level of expressed mRNA in the presence of chemical substance/The level of expressed mRNA in the absence of chemical substance: 2.8
Yeast gene YPL206C, incubated two hours with chemical substance
  The level of expressed mRNA in the presence of chemical substance/The level of expressed mRNA in the absence of chemical substance: 1.1
Yeast gene YPL222W, incubated two hours with chemical substance
  The level of expressed mRNA in the presence of chemical substance/The level of expressed mRNA in the absence of chemical substance: 3.4
Yeast gene YPR023C, incubated two hours with chemical substance
  The level of expressed mRNA in the presence of chemical substance/The level of expressed mRNA in the absence of chemical substance: 2.8
Yeast gene YPR151C, incubated two hours with chemical substance
  The level of expressed mRNA in the presence of chemical substance/The level of expressed mRNA in the absence of chemical substance: 9.5
